Laboratory results as given in patent US20250091994A1, “RAS/RAF BINDING INHIBITOR COMPOUND” (NATIONAL UNIVERSITY CORPORATION KOBE UNIVERSITY, priority 2021, published 2025).

Legend:
[1] = system: acute lymphoblastic leukemia cells CCRF-CEM (K-RasG12D); test: Cell growth inhibition, suspension cells CCRF-CEM; assay type: cell-based; conditions: Homo sapiens, 72 hours; for inhibition at 1 µM: read-out: CCRF-CEM (KRasG12D) % inhibition at 1 μM; for inhibition at 3.2 µM: read-out: CCRF-CEM (KRasG12D) % inhibition at 3.2 μM (***)
Procedure: (§1) The cell growth inhibitory activity of the compound of the present invention on human culture cells having active-type mutation in Ras was evaluated by the below-mentioned method using suspension cancer cells {acute lymphoblastic leukemia cells CCRF-CEM (K-RasG12D), promyelocytic leukemia cells HL60 (N-RasQ61L), acute lymphoblastic leukemia cells MOLT4 (N-RasG12C), and small cell lung cancer cells SHP77 (K-RasG12V)} and adherent cancer cells {large bowel cancer cells SW480 (K-RasG12V) and large bowel cancer cell SW620 (K-RasG12V)}.
(§2) (Case of suspension cells) The cells suspended in a medium containing 0.5% (v/v) fetal bovine serum (FBS) and each compound solution (final DMSO concentration: 1%) were seeded on a 96-well plate (2 to 4×10^4 cells/well), and the resulting mixture was then cultured at 37° C. in the presence of 5% CO2 for 72 hours.
(§3) Thereafter, the number of viable cells was measured using Cell Counting Reagent (Nacalai Tesque) in accordance with the manufacturer's instructions. Inhibition by the test compound was determined according to the following equation: […]

[2] = system: acute lymphoblastic leukemia cells MOLT4 (N-RasG12C); test: Cell growth inhibition, suspension cells MOLT4; assay type: cell-based; conditions: Homo sapiens, MOLT-4, 72 hours; for inhibition at 10 µM: read-out: MOLT-4 (NRasG12C) % inhibition at 10 μM (**); for inhibition at 3.2 µM: read-out: MOLT-4 (NRasG12C) % inhibition at 3.2 μM (***)
Procedure: as §1, §2, §3

[3] = molecular target: GTPγS-bound human HRasG12V / human c-Raf-1 Ras binding domain (RBD) (Homo sapiens (Human), UniProt P01112, G12V); test: Ras-Raf binding inhibition ELISA; conditions: for IC50: anti-HRas antibody C-20, read-out: ELISA IC50 (μM): 1st Ab_C-20
Chain of GTPγS-bound human HRasG12V / human c-Raf-1 Ras binding domain (RBD) (P01112 whole entry G12V, the tested form may be a part): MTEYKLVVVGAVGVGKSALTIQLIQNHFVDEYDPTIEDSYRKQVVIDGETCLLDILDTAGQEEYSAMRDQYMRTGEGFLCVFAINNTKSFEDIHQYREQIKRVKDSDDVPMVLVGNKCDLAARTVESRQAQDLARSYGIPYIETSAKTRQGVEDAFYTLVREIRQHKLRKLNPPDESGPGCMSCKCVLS
How it was run: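 GST-c-Raf-1 RBD (aa 50-131) immobilized on glutathione plates, then GTPγS-loaded full-length HRasG12V added with compound (final 10% DMSO), 1 h at 30 °C, pH 7.4 Tris buffer. Bound Ras detected by anti-HRas antibody (C-20 or 259) and HRP secondary, TMB read at OD450; IC50 from inhibition.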

[4] = system: promyelocytic leukemia cells HL60 (N-RasQ61L); test: Cell growth inhibition, suspension cells HL60; assay type: cell-based; conditions: Homo sapiens, HL-60, 72 hours; for inhibition at 3.2 µM: read-out: HL-60 (NRasQ61L) % inhibition at 3.2 μM (****)
How it was run: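 Suspension cells, 2 to 4×10^4 per well, cultured with compound in medium with 0.5% FBS (1% DMSO final) for 72 h at 37° C, 5% CO2. Viable cells counted with Cell Counting Reagent; inhibition calculated relative to controls.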

[5] = system: large bowel cancer cell SW620 (K-RasG12V); test: Cell growth inhibition, adherent cells SW620; assay type: cell-based; conditions: Homo sapiens, SW-620, 72 hours; for inhibition at 3.2 µM: read-out: SW620 (KRasG12V) % inhibition at 3.2 μM (***)
How it was run: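 Adherent cells, 1 to 2×10^4 per well, grown overnight in 10% FBS, then exposed to compound in low-serum medium […] for 72 h at 37° C. Viable cells counted with Cell Counting Reagent; inhibition calculated relative to controls.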

[6] = system: small cell lung cancer cells SHP77 (K-RasG12V); test: Cell growth inhibition, suspension cells SHP77; assay type: cell-based; conditions: Homo sapiens, 72 hours; for inhibition at 3.2 µM: read-out: SHP77 (KRasG12V) % inhibition at 3.2 μM (**)
Procedure: as §1, §2, §3

| SMILES | IC50 [3] [µM] | inhibition at 1 µM [3] [%] | inhibition at 1 µM [1] [%] | inhibition at 3.2 µM [5] [%] | inhibition at 3.2 µM [6] [%] | other results |
| --- | --- | --- | --- | --- | --- | --- |
| CC(=O)N1C(=Cc2ccc(OCC(=O)N3CCOCC3)c(F)c2)C(=O)c2ccccc21 (racemic) [Example 16, 1-acetyl-2-(3-fluoro-4-(2-morpholino-2-oxoethoxy)-benzylidene)-indolin-3-one] | 7.6 | – | 56 | – | – | inhibition at 10 µM [2]: 100% |
| CC(=O)N1C(=Cc2cc(F)c(OCC(=O)N3CCOCC3)c(F)c2)C(=O)c2ccccc21 (racemic) [Example 19, 1-acetyl-2-(3,5-difluoro-4-(2-morpholino-2-oxoethoxy)-benzylidene)-indolin-3-one] | 5.8 | – | 83 | – | – | inhibition at 10 µM [2]: 100% |
| COCCOc1ccc(/C=C2/C(=O)c3ccccc3N2C(C)=O)cc1OC [Example 11, 1-acetyl-2-(3-methoxy-4-(2-methoxyethoxy)-benzylidene)-indolin-3-one] | – | – | 55 | – | – | inhibition at 10 µM [2]: 100%; inhibition at 10 µM [3]: 54% |
| CCOc1cc(/C=C2/C(=O)c3ccccc3N2C(C)=O)ccc1OCC(N)=O [Example 13, 2-(4-((1-acetyl-3-oxoindolin-2-ylidene)methyl)-2-ethoxyphenoxy)-acetamide] | – | – | 33 | – | – | inhibition at 10 µM [2]: 100% |
| COc1cc(/C=C2/C(=O)c3ccccc3N2C(C)=O)ccc1OS(C)(=O)=O [Example 21, 4-((1-acetyl-3-oxoindolin-2-ylidene)methyl)-2-methoxyphenyl methanesulfonate] | – | – | 97 | – | – | inhibition at 1 µM ([4]; 1 μM, read-out: HL-60 (NRasQ61L) % inhibition at 1 μM): 43%; inhibition at 3.3 µM ([2]; 3.3 μM (*), read-out: MOLT-4 (NRasG12C) % inhibition at 3.3 μM (*)): 100% |
| COc1cc(/C=C2/C(=O)c3ccccc3N2C(C)=O)ccc1OCS(C)(=O)=O [Example 24, 1-acetyl-2-(3-methoxy-4-((methylsulfon-yl)methoxy)-benzylidene)-indolin-3-one] | – | – | 88 | – | – | inhibition at 1 µM ([2]; 1 μM, read-out: MOLT-4 (NRasG12C) % inhibition at 1 μM): 54% |
| CC(=O)N1/C(=C\c2cc(CN3CCOCC3)c3ccccc3n2)C(=O)c2ccccc21 [Example 181, (Z)-1-acetyl-2-((4-(morpholinometh-yl)quinolin-2-yl)-methylene)indolin-3-one] | 2.4 | – | – | 74.3 | – | inhibition at 3.2 µM [4]: 96.7%; inhibition at 3.2 µM [1]: 98.2%; inhibition at 3.2 µM [2]: 96.3% |
| CC(=O)N1CCc2c(cccc2-c2cc(/C=C3/C(=O)c4ccccc4N3C(C)=O)nc3ccccc23)C1 [Example 193, (Z)-1-acetyl-2-((4-(2-acetyl-1,2,3,4-tetra-hydroisoquinolin-5-yl)quinolin-2-yl)methylene)-indolin-3-one] | – | 60.4 | – | 96.1 | 98.1 | – |
| CC(=O)N1/C(=C\c2ccc3cc(C(=O)N4CCOCC4)cc(-c4cccc5ccccc45)c3n2)C(=O)c2ccccc21 [Example 197, 1-acetyl-2-((6-(morpholine-4-carbonyl)-8-(naphthalen-1-yl)-quinolin-2-yl)-methylene)indolin-3-one] | – | – | – | 35.5 | 65.7 | inhibition at 10 µM [3]: 35.3% |

Further lines, with some results ahead:

| IC50 [3] [µM] | inhibition at 1 µM [3] [%] | SMILES | inhibition at 1 µM [1] [%] | inhibition at 3.2 µM [5] [%] | inhibition at 3.2 µM [6] [%] | other results |
| --- | --- | --- | --- | --- | --- | --- |
| 0.3 | 72.7 | CC(=O)N1/C(=C\c2cc(-c3cccc4ccccc34)c3cc(C(=O)N4CCN(C5COC5)CC4)ccc3n2)C(=O)c2ccccc21 [Example 159, (Z)-1-acetyl-2-((4-(naphthalen-1-yl)-6-(4-(oxetan-3-yl)piperazine-1-carbonyl)quinolin-2-yl)methylene)-indolin-3-one] | – | 96.6 | 52.6 | – |
| 0.7 | 63.8 | CC(=O)N1/C(=C\c2cc(-c3ccc4ccccc4c3)c3cc(C(=O)N4CCN(C5COC5)CC4)ccc3n2)C(=O)c2ccccc21 [Example 163, (Z)-1-acetyl-2-((4-(naphthalen-2-yl)-6-(4-(oxetan-3-yl)piperazine-1-carbonyl)quinolin-2-yl)methylene)-indolin-3-one] | – | 34.7 | 72.3 | – |
| 0.8 | 62.2 | CC(=O)N1/C(=C\c2cc(-c3cccc4cccnc34)c3cc(CNC4CCOCC4)ccc3n2)C(=O)c2ccccc21 [Example 167, (Z)-1-acetyl-2-((6-(((tetrahydro-2H-pyran-4-yl)-amino)methyl)-[4,8′-biquinolin]-2-yl)methylene)-indolin-3-one] | – | 64.4 | 65.8 | – |
| 0.9 | 52.4 | CC(=O)N1/C(=C\c2cc(-c3ccc4ccccc4c3)c3cc(CNC4CCOCC4)ccc3n2)C(=O)c2ccccc21 [Example 169, (Z)-1-acetyl-2-((4-(naphthalen-2-yl)-6-(((tetrahydro-2H-pyran-4-yl)-amino)methyl)-quinolin-2-yl)-methylene)indolin-3-one] | – | 35.1 | 51.5 | – |
| – | 66.7 | CC(=O)N1CCc2cc(-c3cc(/C=C4/C(=O)c5ccccc5N4C(C)=O)nc4ccccc34)ccc2C1 [Example 187, (Z)-1-acetyl-2-((4-(2-acetyl-1,2,3,4-tetra-hydroisoquinolin-6-yl)-quinolin-2-yl)methylene)-indolin-3-one] | – | – | – | inhibition at 1 µM ([5]; 1 μM, read-out: SW620 (KRasG12V) % inhibition at 1 μM): 39.3%; inhibition at 1 µM ([6]; 1 μM, read-out: SHP77 (KRasG12V) % inhibition at 1 μM): 66.8% |
| 0.9 | 55.7 | CC(=O)N1/C(=C\c2ccc3c(-c4cccc5ccccc45)c(C(=O)N4CCOCC4)ccc3n2)C(=O)c2ccccc21 [Example 195, (Z)-1-acetyl-2-((6-(morpholine-4-carbonyl)-5-(naphthalen-1-yl)-quinolin-2-yl)-methylene)indolin-3-one] | – | 95.4 | 96.4 | – |
| 1.3 | 46.7 | CC(=O)N1/C(=C\c2cc(CNC3CCOCC3)c3ccccc3n2)C(=O)c2ccccc21 [Example 208, (Z)-1-acetyl-2-((4-(((tetrahydro-2H-pyran-4-yl)-amino)methyl)-quinolin-2-yl)-methylene)indolin-3-one] | – | 81.1 | – | inhibition at 3.2 µM [4]: 95.1%; inhibition at 3.2 µM [1]: 97%; inhibition at 3.2 µM [2]: 96.2% |
| – | 71.2 | CC(=O)N1CCc2cc(-c3cc(/C=C4/C(=O)c5ccccc5N4C(C)=O)nc4ccc(CNC5CCOCC5)cc34)ccc2C1 [Example 209, (Z)-1-acetyl-2-((4-(2-acetyl-1,2,3,4-tetrahydro-isoquinolin-6-yl)-6-(((tetrahydro-2H-pyran-4-yl)-amino)methyl)-quinolin-2-yl)-methylene)indolin-3-one] | – | 94.4 | – | inhibition at 3.2 µM [4]: 96.7%; inhibition at 3.2 µM [1]: 97.8%; inhibition at 3.2 µM [2]: 96.7% |
| 0.6 | 66.9 | CC(=O)N1/C(=C\c2cc(-c3cccc(-c4cnn(C)c4)c3)c3cc(CNC4CCOCC4)ccc3n2)C(=O)c2ccccc21 [Example 210, (Z)-1-acetyl-2-((4-(3-(1-methyl-1H-pyrazol-4-yl)-phenyl)-6-(((tetra-hydro-2H-pyran-4-yl)amino)meth-yl)quinolin-2-yl)-methylene)indolin-3-one] | – | 78 | – | inhibition at 3.2 µM [4]: 97.3%; inhibition at 3.2 µM [1]: 97.5%; inhibition at 3.2 µM [2]: 96.2% |
